Results on 8 compounds are retold here after PubChem BioAssay (NCI).

Some test systems named below: SK-MEL-5 melanoma; BT-549 breast; DU-145 prostate; SNB-19 CNS; HCC-2998 colon; COLO 205 colon; MOLT-4 leukemia; NCI/ADR-RES ovarian; RXF 393 renal; LOX IMVI melanoma.
Test in all cases: NCI-60 cell line screen, 48 h

Several values for one entry are separate records, joined by “and”; a condition that tells them apart may be missing. Identical values can stand only once.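 Interpolation was linear, between the two tested concentrations surrounding the appropriate level; five concentrations were tested over 48 hours in 96-well plates. Here, GI50 denotes the concentration required for 50% inhibition of growth. TGI is the concentration that stops growth completely.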

As for `CC[C@@]1(O)C(=O)OCc2c1cc1n(c2=O)Cc2cc3cc(O)ccc3nc2-1`, the GI50 in the test on SK-MEL-5 melanoma is 0.0247 µM and 0.0167 µM; in the test with SNB-19 CNS it was 0.00946 µM; in the test on HCC-2998 colon it was 0.0589 µM and 0.0721 µM; in the test with COLO 205 colon it was 0.573 µM; in the test on MOLT-4 leukemia, 0.011 µM; with RXF 393 renal it was 0.0311 µM. Moreover, the TGI in the test with SK-MEL-5 melanoma was 0.111 µM and 0.0959 µM; with BT-549 breast, 26.6 µM; in the test on DU-145 prostate, 0.0786 µM; in the test with SNB-19 CNS it was 75 µM and > 23.4 µM; in the test on HCC-2998 colon it was 0.912 µM and 0.847 µM; in the test with COLO 205 colon, 2.36 µM and 2.56 µM. Moreover, the TGI with NCI/ADR-RES ovarian is 0.225 µM and 0.109 µM; in the test on RXF 393 renal it was 0.165 µM and 0.222 µM; in the test on LOX IMVI melanoma it was 1.17 µM and 0.224 µM.
As for `N#Cc1c(-c2ccccc2)nc(SCC(O)CN2CCOCC2)nc1N1CCOCC1` (stereo not given), the GI50 is 2.99 µM in the test on SK-MEL-5 melanoma; 7.26 µM in the test with BT-549 breast; 24.5 µM with DU-145 prostate; 15 µM in the test with SNB-19 CNS; 47 µM with HCC-2998 colon; 29.6 µM in the test with COLO 205 colon. Moreover, the GI50 with MOLT-4 leukemia was 16.1 µM; in the test with NCI/ADR-RES ovarian, 39.5 µM; in the test with RXF 393 renal it was 5.55 µM; with LOX IMVI melanoma it was 17.6 µM. In addition, the TGI in the test on SK-MEL-5 melanoma is 47.9 µM; in the test with BT-549 breast, above 100 µM; with DU-145 prostate it was above 100 µM; with SNB-19 CNS, 94.8 µM; in the test on HCC-2998 colon it was above 100 µM; in the test with COLO 205 colon it was 84.6 µM. The TGI with MOLT-4 leukemia was above 100 µM; in the test on NCI/ADR-RES ovarian, above 100 µM; in the test on RXF 393 renal, 31.8 µM; in the test with LOX IMVI melanoma, above 100 µM.
As to `COc1ccc(-c2cc(-c3ccc(Cl)cc3)nc(SCCCC(=O)NO)n2)cc1OC`, the GI50 with SK-MEL-5 melanoma was 1.03 µM; in the test with BT-549 breast, 1.94 µM; in the test on DU-145 prostate, 0.811 µM; in the test on SNB-19 CNS it was 1.57 µM; in the test with HCC-2998 colon, 1.5 µM; with COLO 205 colon, 1.73 µM. The GI50 in the test with MOLT-4 leukemia was 0.855 µM; in the test on NCI/ADR-RES ovarian, 0.368 µM; in the test with RXF 393 renal it was 0.417 µM; in the test with LOX IMVI melanoma, 0.345 µM. The TGI was found to be 2.4 µM with SK-MEL-5 melanoma; 12 µM in the test on BT-549 breast; 4.73 µM with DU-145 prostate; 4.43 µM with SNB-19 CNS; 3.05 µM in the test on HCC-2998 colon; 5.06 µM in the test with COLO 205 colon. Besides, the TGI with MOLT-4 leukemia stood at 12.5 µM; in the test on NCI/ADR-RES ovarian, 2.54 µM; in the test on RXF 393 renal, 1.66 µM; in the test on LOX IMVI melanoma, 1.44 µM.
For `CCN(CC)Cc1cc(Nc2ccnc3ccc(OC)cc23)ccc1O`, the GI50 in the test with SK-MEL-5 melanoma is 2.46 µM; in the test with BT-549 breast, 9.53 µM; with DU-145 prostate, 3.93 µM; with SNB-19 CNS, 8.4 µM; in the test on HCC-2998 colon, 2.35 µM; in the test with COLO 205 colon, 1.63 µM. In addition, the GI50 in the test with MOLT-4 leukemia is 2.98 µM; with NCI/ADR-RES ovarian, 4.87 µM; in the test on RXF 393 renal, 2.79 µM; with LOX IMVI melanoma it was 2.36 µM. The TGI in the test with SK-MEL-5 melanoma was 6.31 µM; in the test with BT-549 breast, 27.9 µM; with DU-145 prostate, 16.8 µM; in the test on SNB-19 CNS, above 100 µM; in the test with HCC-2998 colon it was 7.1 µM; in the test with COLO 205 colon, 3.67 µM. Besides, the TGI was 16.8 µM in the test on MOLT-4 leukemia, 28.8 µM in the test on NCI/ADR-RES ovarian, 10.9 µM in the test on RXF 393 renal and 6.48 µM with LOX IMVI melanoma.
For the compound `Cc1ncnc2c1ccn2[C@@H]1C[C@H](Oc2cc(C(F)F)c(F)c3c2CNCC3)[C@@H](O)[C@H]1O`, the GI50 with SK-MEL-5 melanoma, in the test with BT-549 breast, with DU-145 prostate, in the test on SNB-19 CNS, with HCC-2998 colon and in the test with COLO 205 colon was above 100 µM in each case. Further, the GI50 with MOLT-4 leukemia, in the test with NCI/ADR-RES ovarian, in the test with RXF 393 renal and in the test with LOX IMVI melanoma was above 100 µM throughout. The TGI with SK-MEL-5 melanoma, with BT-549 breast, in the test with DU-145 prostate, in the test on SNB-19 CNS, in the test with HCC-2998 colon and in the test with COLO 205 colon was above 100 µM each time. Moreover, the TGI in the test with MOLT-4 leukemia, in the test with NCI/ADR-RES ovarian, in the test with RXF 393 renal and in the test on LOX IMVI melanoma was above 100 µM each time.
For the compound `CCc1nc(N)nc(N)c1-c1ccc(N2CCNCC2)c([N+](=O)[O-])c1`, the TGI with SK-MEL-5 melanoma was 28.3 µM; in the test on BT-549 breast, above 100 µM; with DU-145 prostate, above 100 µM; in the test with SNB-19 CNS, above 100 µM; in the test on HCC-2998 colon, 58.8 µM; with COLO 205 colon, 40.5 µM. Besides, the TGI in the test on MOLT-4 leukemia was above 100 µM; in the test on NCI/ADR-RES ovarian, above 100 µM; with RXF 393 renal, above 100 µM; in the test on LOX IMVI melanoma it was above 66.1 µM.
On to `C=CCc1cc(O)ccc1O`, for which the GI50 with SK-MEL-5 melanoma was 43.3 µM; in the test on BT-549 breast, 6.16 µM; in the test with DU-145 prostate, 85 µM; in the test on SNB-19 CNS it was above 100 µM; with HCC-2998 colon it was above 100 µM; in the test on COLO 205 colon, above 100 µM. In addition, the GI50 with MOLT-4 leukemia was 5.87 µM; in the test with NCI/ADR-RES ovarian, 22.7 µM; with RXF 393 renal it was 26.3 µM; with LOX IMVI melanoma, 17 µM. Moreover, the TGI in the test with SK-MEL-5 melanoma, in the test with BT-549 breast, in the test with DU-145 prostate, in the test on SNB-19 CNS, in the test with HCC-2998 colon and in the test with COLO 205 colon was above 100 µM throughout. Further, the TGI in the test with MOLT-4 leukemia was 68.9 µM; with NCI/ADR-RES ovarian it was above 100 µM; with RXF 393 renal, above 100 µM; in the test on LOX IMVI melanoma, 48.8 µM.
Consider `O=C(NNC1=NS(=O)(=O)c2ccccc2N1c1ccccc1)c1cnccn1`, for which the GI50 in the test with SK-MEL-5 melanoma, with BT-549 breast, in the test on DU-145 prostate, with SNB-19 CNS, with HCC-2998 colon and with COLO 205 colon was above 100 µM each time. The GI50 with MOLT-4 leukemia, in the test on NCI/ADR-RES ovarian, with RXF 393 renal and with LOX IMVI melanoma was above 100 µM throughout. Also, the TGI in the test with SK-MEL-5 melanoma, in the test on BT-549 breast, with DU-145 prostate, in the test with SNB-19 CNS, in the test on HCC-2998 colon and in the test with COLO 205 colon was above 100 µM throughout. The TGI with MOLT-4 leukemia, with NCI/ADR-RES ovarian, in the test on RXF 393 renal and in the test with LOX IMVI melanoma was above 100 µM throughout.
